These results are taken from patent US20210153516A1, “COMPOSITION AND METHOD OF TREATING PLANTS AND PLANT PARTS WITH VOLATILE SPOILAGE ORGANISM CONTROLLING ACTIVES” (AGROFRESH INC., priority 2019, published 2021).

Each structure is given as a SMILES string.

Experiment [1] deals with B. cinerea (Botrytis cinerea or Gray mold). Description: B. cinerea infection assessment for blueberries after thermal fogging (Example 3). The note with it: untreated blueberries placed adjacent to treated blueberries one day after treatment, 10 mg active ingredient per kg. Format: in vivo. The protocol:
(§1) The experiment was conducted by 1) setting up a 4.3 m^3 rectangular plastic tent, 2) placing blueberries in open clamshells in the tent, 3) preparing a foggable formulation by dissolving volatile compound into a solvent mixture containing 50% w/w propylene glycol, 47.8% w/w isopropyl alcohol, 2% w/w sorbitan mono-oleate, and 0.2% of citric acid to achieve about 10% w/w volatile compound, 4) inoculating the blueberries before treatment, 5) applying the formulation through a thermal fogger with set temperature at 200° C. and flow rate of about 70 ml/min, and target use rate of 10 mg active ingredient per kg of blueberries, and 6) storing the blueberries under refrigerated condition of about 4° C. after treatment, and at room temperature to incubate for observation of disease infections.
B. cinerea (Botrytis cinerea or Gray mold) infection was assessed at 4 and 13 days incubation time for both untreated blueberries in isolation and untreated blueberries placed adjacent to the treated blueberries one day after the treatment.

Experiment [2] relates to B. cinerea. Description: B. cinerea infection assessment for strawberries after dipping treatment. Format: in vivo, Botrytis cinerea. The procedure: The experiment was conducted by 1) preparing a dipping treatment solution by dissolving volatile compound into 20% v/v isopropanol water solution to achieve 10 ppm concentration, 2) pre-inoculate all the strawberries before treatment, 3) dipping strawberries in the prepared solution for 30 seconds, 4) storing the strawberries under refrigerated conditions and at room temperature to incubate for disease observations. B. cinerea infection was assessed at 3 and 5 days incubation time for both untreated strawberries in isolation and untreated strawberries placed adjacent to the treated strawberries.

Experiment [3] has as its system Penicillium digitatum (Green mold) and Penicillium italicum (Blue mold). Description: Green mold and Blue mold infection assessment for mandarins after dipping treatment. In kind it is in vivo. The note with it: equally mixed mandarins of untreated and treated (dip about 60 seconds); 10 days incubation at room temperature. The protocol: The experiment was conducted by 1) preparing a dipping treatment solution by diluting 360 ml concentrated formulation containing 10% w/w volatile compound, 45% w/w propylene glycol, 43.02% w/w isopropanol, 1.8% w/w sorbitan mono-oleate, 0.18% w/w citric acid into 60 L water, 2) dipping a box of mandarins into the treatment solution bath for about 60 seconds, 3) after air drying of the mandarins, preparing a box of mandarins containing 50% untreated mandarins and 50% treated mandarins, 4) storing the mandarins under 3-5° C. refrigerated conditions for 7 days, and then storing at room temperature with high humidity to incubate for disease observations. Penicillium digitatum (Green mold) and Penicillium italicum (Blue mold) infection incidence of the mandarins was assessed at 10 days incubation time under room temperature shelf life conditions for both untreated mandarins in isolation and equally mixed untreated and treated mandarins to simulate uneven drench or dip treatment applications.

Experiment [4] concerns B. cinerea. Kind of experiment: B. cinerea infection assessment for blueberries after thermal fogging (Example 4). Format: in vivo, Botrytis cinerea. The procedure:
as §1
B. cinerea infection was assessed at 13, 16, and 24 days incubation time under room temperature shelf life conditions for both untreated blueberry in isolation, untreated blueberry placed adjacent to the treated blueberry six days after the treatment, and the treated blueberries.

For experiment [5], the system named is Penicillium digitatum (Green mold) and Penicillium italicum (Blue mold). Description: Green mold and Blue mold infection assessment for mandarins after spray treatment. Format: in vivo. Conditions: equally mixed mandarins of untreated and treated (spray 60 ml treatment solution per box); 10 days incubation at room temperature. The procedure: The experiment was conducted by 1) preparing a spray treatment solution by diluting […] concentrated formulation containing 10% w/w volatile compound, 45% w/w propylene glycol, 43.02% w/w isopropanol, 1.8% w/w sorbitan mono-oleate, 0.18% w/w citric acid into 1 L water, 2) spraying a box of mandarins with the use rate of 60 ml treatment solution per box, 3) after air drying of the mandarins, preparing a box of mandarins containing 50% untreated mandarins and 50% treated mandarins, 4) storing the mandarins under 3-5° C. refrigerated conditions for 7 days, and then storing at room temperature with high humidity to incubate for disease observations. Penicillium Digitatum (Green mold) and Penicillium italicum (Blue mold) infection incidence of the mandarins was assessed at 10 days incubation time under room temperature shelf life conditions for both untreated mandarins in isolation and equally mixed untreated and treated mandarins to simulate uneven spray treatment applications.

Where [6] appears, read: treated blueberries, thermal fogging 10 mg active ingredient per kg, 13 days incubation.
[7] abbreviates: treated blueberries, thermal fogging 10 mg active ingredient per kg, 16 days incubation.
The mark [8] stands for this setting: treated blueberries, thermal fogging 10 mg active ingredient per kg, 24 days incubation.
The mark [9] stands for this setting: untreated blueberries placed adjacent to treated blueberries 6 days after treatment, 13 days incubation.
Where [10] appears, read: untreated blueberries placed adjacent to treated blueberries 6 days after treatment, 16 days incubation.
Setting [11] is: untreated blueberries placed adjacent to treated blueberries 6 days after treatment, 24 days incubation.

As to `OB1OCc2cc(F)ccc21` [5-fluoro-1-hydroxy-3H-2,1-benzoxaborole], the B. cinerea incidence in experiment [1] (4 days incubation) is reported as 2.6%; in experiment [1] (13 days incubation), 19.2%; with B. cinerea [4] (setting [6]), 2.8%; in the experiment with B. cinerea [4] (setting [7]) it was 2.8%; in the experiment with B. cinerea [4] (setting [8]) it was 5.6%; in the experiment on B. cinerea [4] (setting [9]), 16.7%. For the same molecule, the B. cinerea incidence in the experiment with B. cinerea [4] (setting [10]) stood at 23.0%; with B. cinerea [4] (setting [11]), 33.3%. Further, the B. cinerea severity in experiment [1] (4 days incubation) stood at 0.2%; in experiment [1] (13 days incubation) it was 10.6%; in the experiment on B. cinerea [2] (treated strawberries, dipped 30 seconds in 10 ppm solution, 3 days incubation), 0.0%; with B. cinerea [2] (treated strawberries, dipped 30 seconds in 10 ppm solution, 5 days incubation) it was 0.0%; with B. cinerea [2] (untreated strawberries placed adjacent to treated strawberries, 3 days incubation), 5.4%; in the experiment with B. cinerea [2] (untreated strawberries placed adjacent to treated strawberries, 5 days incubation), 43.8%. Also, the B. cinerea severity is given as 1.1% with B. cinerea [4] (setting [6]); 1.1% in the experiment on B. cinerea [4] (setting [7]); 3.3% in the experiment with B. cinerea [4] (setting [8]); 4.7% in the experiment on B. cinerea [4] (setting [9]); 6.2% in the experiment on B. cinerea [4] (setting [10]); 15.0% in the experiment on B. cinerea [4] (setting [11]). The “Green and Blue mold incidence” value in experiment [3] is 4.1%. Also, the “Green and Gray molds incidence” value in experiment [5] came out at 0.64%.
